Test [1] has as its system pyruvate kinase. Nature of the test: Pyruvate kinase activity in vivo (worms that fed on DDS). Details: species or system C. elegans. As to conditions: FIG. 16B. The procedure: (§1) PK activity was analyzed through the decrease degree of absorbance at 340 nm by using the change result from pyruvate and NADH to lactate and NAD by lactate dehydrogenase (LDH). The pyruvate and ATP used for the above process were produced from phosphoenolpyruvate (PEP) and ADP by PK. The analysis in vitro was measured by adding directly DDS along with PK to the above reaction mixture and the analysis in vivo was measured by adding worms that fed on DDS.
(§2) Samples were homogenized by rupturing C. elegans with glass bead Precellys 24 homogenizer, twice for 20 seconds, at 5000 rpm in a 100 mM potassium phosphate buffer, pH 7.6, at 37° C. A CHAPS was added to the homogenized sample to be 1% of the final concentration and then centrifuged at 15000 g for 20 minutes. The measurement of pyruvate kinase(PK) activity was performed at 37° C. by adding 300 uL of the reaction mixture contained 100 mM potassium phosphate buffer at pH 7.6 and 37° C., 100 mM MgSO4, 1.3 mM β-NADH, 5000 units/mL of lactate dehydrogenase (LDH), 2 mM adenosine diphosphate (ADP) and 17 mM phosphoenolpyruvate (PEP) into the sample. The change of oxidation degree of NADH was measured at 340 nm of absorbance. PK 1 unit was defined as the change into 1.0 umole of pyruvate per a minute at pH 7.6 and 37° C. […] Type I pyruvate kinase (Sigma) of rabbit muscle was used for in vitro experiment.

Test [2] deals with C. elegans. The test is described as follows: Chemiluminescent of lipofuscin in small intestine of worm. In kind it is in vivo. As to conditions: fed on DDS during the whole life and after the adolescence; FIG. 5. On the procedure:
The chemiluminescent of C. elegans was taken a photograph by exposing for 800 msec through 525 nm Band-Pass Filter. The size of each photograph was only adjusted by using Adobe Photoshop CS2. For measuring the amount of Chemiluminescent in a small intestine, the brightness of pixels in a certain region was measured by Image J 1.35. At least 30 of C. elegans were measured every day and then the mean and standard error were calculated.

The test system of test [3] is autophagy. Nature of the test: Autophagy genes RT-PCR and GFP::lgg-1 immune blot in C. elegans. In kind it is in vivo. The note with it: after treating with DDS. The procedure: All the results are summarized from three independent experiments.
Total RNA was isolated by using TRI reagent available from MRC Company and first cDNA strain was synthesized by using Oligo-dT and Superscript II Reverse Transcriptase (available from Invitrogen Company). The gene amplification (PCR) was performed by using PCR Master Mix (Genenmed) and as the base sequence of the primer, ceDuox1; 5′-[…]-3′ (Forward Primer) and 5′-[…]-3′ (Reverse Primer), actin 5′-[…]-3′ (Forward Primer) and 5′-[…]-3′ (Reverse Primer) were used.
In addition, the gene related to the autophagy used the primer as follows: […]

Test [4] deals with NOX4. Nature of the test: NOX4 mRNA level by RT-PCR in PQ-treated human diploid fibroblast. Type of test: cell-based. As to conditions: 1 mM PQ for 5 minutes, FIG. 26. The procedure: The amount of NOX4 (HDF specific) mRNA, which is a source for generating a cytosolic superoxide anion, increased by PQ was measured. For FIG. 26B, it was quantitived as % rate as compared with a control (non-treated human diploid fibroblast).
RNA of the human diploid fibroblast was isolated by using Trizol Reagent (MRC Cincinnati, USA), and NOX4 and GAPDH were measured through RT-PCR by using Biometra T Gradient PCR (Biometra, Goettingen, Germany) machine. A specific NOX primer; 5′-[…]-3′ (Forward Primer) and 5′-[…]-3′ (Reverse Primer); Primer for GAPDH 5′-[…]-3′ (Forward Primer) and 5′-[…]-3′ (Reverse Primer) were used as primers. DNA that was manipulated by PCR was isolated through 1.2% agarose gel electrophoresis, stained with EtBr to be visualized and then taken a photography that can be shown through UV.

The target in test [5] is T1, Type I pyruvate kinase of rabbit muscle (Oryctolagus cuniculus, UniProt P11974).
T1 construct: purchased Sigma; host or cells: rabbit muscle
Nature of the test: Pyruvate kinase activity in vitro (LDH-coupled, 340 nm). The note with it: DDS added directly along with PK; FIG. 16A. Type of test: biochemical. On the procedure: as §1, §2

Test [6] relates to C. elegans. Nature of the test: Oxidative stress resistance test, survival in 250 mM paraquat. Type of test: in vivo. As to conditions: PQ 250 mM; compared with control C. elegans; FIG. 12. The procedure: C. elegans at 5 days after administrating dapsone for second generations was used for testing an oxidative stress resistance by dapsone. 250 mM of paraquat was dissolved in M9 solution and then 20 C. elegans was immersed into the above solution. The number of living C. elegans was measured per an hour.

Test [7] concerns H2O2. Nature of the test: Hydrogen peroxide by Amplex Red assay in paraquat-treated C. elegans. Type of test: in vivo. The note with it: 250 mM paraquat for 1 hour; FIG. 11.
Method: The effect of dapsone on ROS scavenging was measured by using Amplex Red hydrogen peroxide/peroxygenase detection kit (Molecular Probes, Eugene, Oreg.) [39] that were previously described in order to measure the effect of dapsone on ROS scavenging. Simply put, 150 C. elegans that fed only on PABA or fed on PABA and dapsone was treated with 250 mM of paraquat for 1 hour. 100 C. elegans were adjusted to be 50 ul at 96-well plate and then 50 ul of Amplex Red (200 uM) was added to each well. After maintaining at 22° C. for 90 minutes, the amount of hydrogen peroxide was measured at 540 nm of absorbance by using a plate reader (Tecan, infinite 200).
The subject of test [8] is SOD2. Nature of the test: Western blot of SOD2 amount in human diploid fibroblast. In kind it is cell-based. The note with it: various concentrations of DDS, FIG. 25B. The procedure: Trolox that is well known as a water-soluble vitamin E was used as a positive control.
(§3) The isolated sample was transferred to a nitrocellulose and analyzed through Western Blot using MS601 (Total OXPHOS Complexes Detection Kit, MitoSciences, containing antibodies against SDH30 subunit of complex II (5 μg/ml), Core2 subunit of complex III (0.2 μg/ml), COXII subunit of complex IV (2 μg/ml), and subunit α of F1-ATPase of complex V (0.2 μg/ml)), PCKpan-p, PCKα/β-p, PKCδ-p (Phospho-PKC antibody Sampler Kit, Cell Signaling Technology), PKC α, PCKβ, PKCδ (Life Technologies), β-Actin (Sigma), and the like. The measurement was performed by using a horseradish […] secondary antibodies (Zymed) and ECL (Pierce). The results were shown through visualizing by using Autoradiographic film (Image Reader, LAS-3000Fujifilm, Japan).
(In general: Immunoblotting shows a protein as a band on a membrane.)

Test [9] concerns PKCβ. The test is described as follows: PKC phosphorylation induced by PQ, Western blot. Type of test: cell-based. As to conditions: human diploid fibroblast; 1 mM PQ; FIG. 28. On the procedure:
as §3

SMILES strings stand for the structures.

T1 sequence (P11974 whole entry): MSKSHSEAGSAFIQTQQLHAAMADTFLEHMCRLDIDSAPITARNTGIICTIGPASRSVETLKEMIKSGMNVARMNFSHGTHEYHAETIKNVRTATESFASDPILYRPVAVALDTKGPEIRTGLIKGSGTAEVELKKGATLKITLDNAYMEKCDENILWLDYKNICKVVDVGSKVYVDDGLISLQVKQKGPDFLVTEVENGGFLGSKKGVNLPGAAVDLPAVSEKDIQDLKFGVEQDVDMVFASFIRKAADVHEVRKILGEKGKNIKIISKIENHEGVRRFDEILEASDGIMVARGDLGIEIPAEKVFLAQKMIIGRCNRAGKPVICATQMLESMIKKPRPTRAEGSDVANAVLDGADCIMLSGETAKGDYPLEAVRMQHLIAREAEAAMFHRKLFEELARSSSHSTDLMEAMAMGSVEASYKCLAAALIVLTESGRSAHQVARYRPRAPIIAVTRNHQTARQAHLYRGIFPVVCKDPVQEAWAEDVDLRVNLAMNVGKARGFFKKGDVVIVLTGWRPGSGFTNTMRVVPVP

For the compound `Nc1ccc(S(=O)(=O)c2ccc(N)cc2)cc1` [DDS, 4,4′-diaminodiphenylsulfone], the “biochemical activity of PK in vivo” value in [1] is “suppresses”. Besides, the generation of lipofuscin result in test [2] was “delayed for several days”. Besides, the “genes relevant to the autophagy, transcription level” value in test [3] (RT-PCR, FIG. 21A) is given as “not changed”. For the same compound, in [3] (immune blot, FIG. 21B), the “LGG-1 marker protein of the autophagy” value is reported as “not increased”. In addition, in [4], the “NOX4 expression increased by PQ” value is given as “decreases”. The “biochemical activity of PK in vitro” value in test [5] is “suppresses”. In addition, the “survival rate in NGM liquid medium containing PQ” value in test [6] is on record as “significantly increased”. Besides, in [7], the “ROS (H2O2) generation by PQ” value is “meaningfully suppresses”. The “amount of SOD2” value in test [8] is on record as “decreases”. Besides, in [9], the “PKCβ phosphorylation (activity) increased by PQ” value is reported as “reduced”.

Source of the values: patent US20110152379A1, “COMPOSITION FOR CONTROL OF AGING AND/OR EXTENSION OF LIFE, CONTAINING DAPSONE AS ACTIVE INGREDIENT” (priority 2008, published 2011).
